US8765719B2, “Therapeutic drug for adult T-cell leukemia” (Kagoshima University, priority 2008, dated 2014)
Where two headings read alike, the source gives them in different places.

Assays:
Format in all cases: cell-based
[1] = system: MOLT-4 (acute lymphoblastic leukemia cell strain); assay: Growth inhibition of MOLT-4 control cells, 4-day culture, MTT method; conditions: MOLT-4 cells, 4 days
Experimental: (§1) In the presence of various agents, S1T (cell strain originated from an ATL patient), MT-2 (HTLV-1 infected cell strain), and as controls, MOLT-4 (acute lymphoblastic leukemia cell strain), CEM (acute lymphoblastic leukemia cell strain), HL-60 (acute promyelocytic leukemia cell strain), and Jurkat (acute T-cell leukemia cell strain) were cultivated for 4 days, and the growth inhibitory effects of compounds on the respective cells were evaluated by the MIT method.
(§2) In the presence of various concentrations of agents, SIT (cell strain originated from an ATL patient) and as a control MOLT-4 (acute lymphoblastic leukemia cell strain) were cultivated for 4 days, and the growth inhibitory effects of the compounds on the respective cells were evaluated by the MTT method.

[2] = system: S1T (cell strain originated from an ATL patient); assay: Growth inhibition of S1T cells, 4-day culture, MTT method; conditions: for IC50: S1T cells, 4 days; for Selectivity to ATL cell (S1T) in words: S1T versus MOLT-4; for Selectivity index on the S1T cell (SI = IC50 for MOLT-4/IC50 for S1T): screen with S1T and MOLT-4
Experimental: as §1, §2

[3] = system: CEM (acute lymphoblastic leukemia cell strain); assay: Growth inhibition of CEM control cells, 4-day culture; conditions: 4 days
Experimental: as §1, with “S1T” left out

[4] = system: Jurkat (acute T-cell leukemia cell strain); assay: Growth inhibition of Jurkat control cells, 4-day culture; conditions: 4 days
Experimental: as §1, with “S1T” left out

[5] = system: MT-2 (HTLV-1 infected cell strain); assay: Growth inhibition of MT-2 cells, 4-day culture; conditions: 4 days
Experimental: as §1, with “S1T” left out

[6] = system: HL-60 (acute promyelocytic leukemia cell strain); assay: Growth inhibition of HL-60 control cells, 4-day culture; conditions: HL-60 cells, 4 days
Experimental: as §1, with “S1T” left out

[7] = Homo sapiens, 96 h, Table 2, MTT, mean of at least 2 experiments, read-out: IC50 (μM) MOLT-4 cell
[8] = Homo sapiens, 96 h, Table 2, MTT, mean of at least 2 experiments, read-out: IC50 (μM) S1T cell
[9] = Table 2, selectivity to ATL cell (IC50 for MOLT-4/IC50 for S1T)
[10] = Table 2, MTT, mean of at least 2 experiments, read-out: IC50 (μM) MOLT-4 cell
[11] = Table 2, MTT, mean of at least 2 experiments, read-out: IC50 (μM) S1T cell
[12] = Homo sapiens, 96 h, Table 1, concentration to inhibit cell growth by 50%, read-out: IC50 (μM) MOLT-4
[13] = Homo sapiens, 96 h, Table 1, concentration to inhibit cell growth by 50%, read-out: IC50 (μM) S1T
[14] = Table 1, selectivity index = IC50 for MOLT-4/IC50 for S1T

## CCC(=O)c1cc2c(cc1O)C(C)(C)CCC2(C)C [Agent A, 5,6,7,8-tetrahydro-3-hydroxy-5,5,8,8-tetramethyl-2-naphthyl ethyl ketone]
[1]; [7]
  IC50: 32.3 ± 5.4 µM
[2]; [8]
  IC50: 4.7 ± 1.3 µM
[2]; [9]
  SI: 6.9

## CC(C)C(=O)c1cc2c(cc1O)C(C)(C)CCC2(C)C [Agent B, 5,6,7,8-tetrahydro-3-hydroxy-5,5,8,8-tetramethyl-2-naphthyl isopropyl ketone]
[1]; [7]
  IC50: 31.9 ± 0.2 µM
[2]; [8]
  IC50: 6 ± 0.7 µM
[2]; [9]
  SI: 5.3

## CC(C)(C)C(=O)c1cc2c(cc1O)C(C)(C)CCC2(C)C [Agent C, 5,6,7,8-tetrahydro-3-hydroxy-5,5,8,8-tetramethyl-2-naphthyl tert-butyl ketone]
[1]; [7]
  IC50: 43.2 ± 2.4 µM
[2]; [8]
  IC50: 41.5 ± 0.8 µM
[2]; [9]
  SI: 1.0

## CC1(C)CCC(C)(C)c2cc(C(=O)c3ccccc3)c(O)cc21 [Agent D, 5,6,7,8-tetrahydro-3-hydroxy-5,5,8,8-tetramethyl-2-naphthyl phenyl ketone]
[1]; [7]
  IC50: 28.3 ± 0.7 µM
[2]; [8]
  IC50: 15.2 ± 2.3 µM
[2]; [9]
  SI: 1.9

## CCC(=O)c1ccc2c(c1)C(C)(C)CCC2(C)C [Agent E, 5,6,7,8-tetrahydro-5,5,8,8-tetramethyl-2-naphthyl ethyl ketone]
[1]; [7]
  IC50: 21.5 ± 2.2 µM
[2]; [8]
  IC50: 3.3 ± 1 µM
[2]; [9]
  SI: 6.5

## CC(C)C(=O)c1ccc2c(c1)C(C)(C)CCC2(C)C [Agent F, 5,6,7,8-tetrahydro-5,5,8,8-tetramethyl-2-naphthyl isopropyl ketone]
[1]; [7]
  IC50: 34.6 ± 1.5 µM
[2]; [8]
  IC50: 3.8 ± 2.1 µM
[2]; [9]
  SI: 9.1

## CC(=S)c1cc2c(cc1O)C(C)(C)CCC2(C)C [Agent G, 5,6,7,8-tetrahydro-3-hydroxy-5,5,8,8-tetramethyl-2-naphthyl ethanethione]
[1]; [10]
  IC50: 36.4 ± 2.1 µM
[2]; [11]
  IC50: 6.9 ± 2.3 µM
[2]; [9]
  SI: 5.3

## CC1(C)CCC(C)(C)c2cc(C(=O)c3ccccc3)ccc21 [Agent H, 5,6,7,8-tetrahydro-5,5,8,8-tetramethyl-2-naphthyl phenyl ketone]
[1]; [7]
  IC50: 11.8 ± 2.2 µM
[2]; [8]
  IC50: 7 ± 0.9 µM
[2]; [9]
  SI: 1.7

## CON(C)C(=O)c1ccc2c(c1)C(C)(C)CCC2(C)C [Agent J, 5,6,7,8-tetrahydro-5,5,8,8-tetramethyl-2-naphthyl-N-methoxy-N-methylamide]
[1]; [10]
  IC50: 9.9 µM
[2]; [11]
  IC50: 12.6 ± 2.1 µM
[2]; [9]
  SI: <1.0

## CC1(C)CCC(C)(C)c2cc(C(N)=O)ccc21 [Agent K, 5,6,7,8-tetrahydro-5,5,8,8-tetramethyl-2-naphthyl amide]
[1]; [10]
  IC50: 39.4 ± 10.4 µM
[2]; [11]
  IC50: 37 ± 2.1 µM
[2]; [9]
  SI: 1.1

## CN(C)C=CC(=O)c1cc2c(cc1O)C(C)(C)CCC2(C)C [Agent M, 5,6,7,8-tetrahydro-3-hydroxy-5,5,8,8-tetramethyl-2-naphthyl 13-(N,N-dimethylamino)vinyl ketone]
[1]; [10]
  IC50: 9.3 ± 0.9 µM
[2]; [11]
  IC50: 2.1 ± 0.1 µM
[2]; [9]
  SI: 4.4

## CC1(C)CCC(C)(C)c2cc3c(=O)ccoc3cc21 [Agent N, 6,7,8,9-tetrahydro-6,6,9,9-tetramethyl-4H-naphtho[2,3-b]pyran-4-one]
[1]; [7]
  IC50: 14.5 ± 1.9 µM
[2]; [8]
  IC50: 1.9 ± 0.2 µM
[2]; [9]
  SI: 7.6

## CC1(C)CCC(C)(C)c2cc3c(cc21)OCCC3=O [Agent O, 2,3,6,7,8,9-hexahydro-6,6,9,9-tetramethyl-4H-naphtho[2,3-b]pyran-4-one]
[1]; [7]
  IC50: 13.6 ± 2.6 µM
[2]; [8]
  IC50: 6.7 ± 0.9 µM
[2]; [9]
  SI: 2.0

## O=C([O-])c1ccccc1O.[Na+] [Sodium salicylate, reference compound]
[1]; [12]
  IC50: 1320 µM
[2]; [13]
  IC50: 1570 µM
[2]
  Selectivity to ATL cell (S1T) in words: no selectivity to S1T was recognized
[2]; [14]
  SI: 0.84

## CC1(C)CCC(C)(C)c2cc(C(=O)O)ccc21 [TMBA, reference compound]
[1]; [12]
  IC50: 61.1 µM
[2]; [13]
  IC50: > 100 µM
[2]; [14]
  SI: <0.61

## CC(=O)c1ccc2c(c1)C(C)(C)CCC2(C)C [TMN(COCH3), 5,6,7,8-tetrahydro-5,5,8,8-tetramethyl-2-naphthyl methyl ketone]
[1]; [12]
  IC50: 66 µM
[2]; [13]
  IC50: 6.9 µM
[2]
  Selectivity to ATL cell (S1T) in words: higher selectivity to an ATL cell than other derivatives with analogous structures
[2]; [14]
  SI: 9.6

## COc1cc2c(cc1C(C)=O)C(C)(C)CCC2(C)C [TMN(OCH3) (COCH3)]
[1]; [12]
  IC50: 11.9 µM
[2]; [13]
  IC50: 7 µM
[2]
  Selectivity to ATL cell (S1T) in words: higher selectivity to an ATL cell than other derivatives with analogous structures
[2]; [14]
  SI: 1.7

## CC1(C)CCC(C)(C)c2ccccc21 [TMN, reference compound]
[1]; [12]
  IC50: > 100 µM
[2]; [13]
  IC50: > 100 µM

## CC(=O)c1cc2c(cc1O)C(C)(C)CCC2(C)C [TMNAA, 5,6,7,8-tetrahydro-3-hydroxy-5,5,8,8-tetramethyl-2-naphthyl methyl ketone]
[3]
  Growth inhibitory effect on CEM: specific inhibitory effect solely on MT-2
[4]
  Growth inhibitory effect on Jurkat: specific inhibitory effect solely on MT-2
[1]; [12]
  IC50: 53.8 µM
[2]; FIG. 1
  Concentration at which growth of an ATL cell is selectively inhibited in comparison to the control: ≥ 4 µM
[2]; [13]
  IC50: 5 µM
[2]
  Selectivity to ATL cell (S1T) in words: higher selectivity to an ATL cell than other derivatives with analogous structures
  Selectivity index on the S1T cell (SI = IC50 for MOLT-4/IC50 for S1T): ≥ 10
[2]; [14]
  SI: 10.8
[2]; listed as compound of the formula III
  Selectivity index on the S1T cell (SI = IC50 for MOLT-4/IC50 for S1T): above 10
[5]
  Growth inhibitory effect on MT-2: specific inhibitory effect solely on MT-2
[6]
  Growth inhibitory effect on HL-60: specific inhibitory effect solely on MT-2

## CC1(C)CCC(C)(C)c2cc(C(=O)O)c(O)cc21 [TNBAA, reference compound]
[1]; [12]
  IC50: 44.4 µM
[2]; [13]
  IC50: 29.7 µM
[2]; [14]
  SI: 1.49
